# Laboratory results from PubChem BioAssay AID1420 (Emory University Molecular Libraries Screening Center, 2008).
# Activity calls are given as the source filed them. No rule for the calls is given here.
# Target: Calpain-2 catalytic subunit (Sus scrofa) (UniProt P43367)
# Assay: m-calpain protease blockers, concentration series – biochemical, fluorogenic peptide substrate, dose response (AID 1420)
# Settings: purified calpain II, 30 min
# Calpain-2 catalytic subunit (Sus scrofa), sequence (P43367 whole entry, looked up): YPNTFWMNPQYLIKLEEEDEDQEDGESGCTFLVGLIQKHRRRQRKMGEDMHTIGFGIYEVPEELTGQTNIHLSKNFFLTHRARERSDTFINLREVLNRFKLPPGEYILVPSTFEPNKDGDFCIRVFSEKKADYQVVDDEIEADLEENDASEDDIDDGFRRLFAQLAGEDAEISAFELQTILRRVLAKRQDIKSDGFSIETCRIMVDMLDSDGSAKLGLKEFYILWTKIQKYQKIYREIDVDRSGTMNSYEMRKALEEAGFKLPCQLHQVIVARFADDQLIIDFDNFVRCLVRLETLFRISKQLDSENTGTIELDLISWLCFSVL
smiles,measurement,value
CC(C)(C)C1CCC(=NNc2ccc(S(N)(=O)=O)cc2[N+](=O)[O-])CC1 (stereo unspecified),IC50,inactive
